Assay [1] deals with T1, Coagulation factor IX (Homo sapiens, UniProt P00740). The experiment in a line: (§1) Inhibition of human coagulation factor 9a using fluorescent peptide CH3SO2-D-CHG-Gly-Arg-AFC-AcoH as substrate.
In assay [2] the target is T1, Coagulation factor IX. Described as §1. The source holds these as a separate data set.

T1 sequence (P00740 47-191 limits assumed): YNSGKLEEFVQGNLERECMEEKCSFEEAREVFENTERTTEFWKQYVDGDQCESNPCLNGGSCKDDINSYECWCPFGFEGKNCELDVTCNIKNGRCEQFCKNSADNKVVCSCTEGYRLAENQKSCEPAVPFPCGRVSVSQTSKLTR
T1 sequence (P00740 227-461 limits assumed): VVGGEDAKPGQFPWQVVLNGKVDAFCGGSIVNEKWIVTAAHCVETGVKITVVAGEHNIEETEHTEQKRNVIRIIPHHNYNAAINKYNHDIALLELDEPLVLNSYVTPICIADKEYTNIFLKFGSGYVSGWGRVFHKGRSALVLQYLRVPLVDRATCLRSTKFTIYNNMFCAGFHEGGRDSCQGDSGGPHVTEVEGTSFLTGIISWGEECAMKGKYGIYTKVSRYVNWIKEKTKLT

As usually defined, the Ki is the equilibrium dissociation constant of an inhibitor or competing ligand from its target. Turning to `Cc1cc2nc([C@@H](CNC(=O)c3c(Cl)cc(-n4cnnc4)cc3Cl)c3ccccc3)[nH]c2cc1C`, the figures for the Ki on Coagulation factor IX [1] and on Coagulation factor IX [2] were 15.4 nM and 15 nM, respectively.
